Assay results as given in PMC8238916 (Nature chemical biology, 2021).

Columns and labels:
TEX cells [1] = assay: Western blot in TEX cells; assay type: cell-based, human; conditions: 4 days
TEX cells [2] = assay: Cell viability assay; assay type: cell-based, human
TEX cells [3] = assay: Gene expression; assay type: cell-based, human; conditions: 96 hours
[4] = target: T1, RING1B RING domain (residues 10-116) as it stands in RING1B-BMI1f (UniProt Q99496 10-116); assay: crystal structure
T1 sequence: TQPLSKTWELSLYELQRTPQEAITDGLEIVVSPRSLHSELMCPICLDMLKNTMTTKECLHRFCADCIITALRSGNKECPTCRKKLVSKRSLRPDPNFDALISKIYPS

Molecule: COc1cc(Br)c(Nc2nc(-c3c(C)nc4ncccn34)cs2)c(Br)c1 [PTC209]
- H2Aub, BMI1 and H2A levels (TEX cells [1]): decreased H2Aub, reduced BMI1 level and, unexpectedly, reduced H2A levels
- cytotoxicity compared with RB-3 (TEX cells [2]): more cytotoxic to TEX cells than RB-3
- C/EBPα and CD34 expression (TEX cells [3]): had no effect on C/EBPα and CD34 expression

B1: BMI1 RING domain (residues 1-104) as it stands in RING1B-BMI1f (domain or fragment)
chain: MHRTTRIKITELNPHLMCVLCGGYFIDATTIIECLHSFCKTCIVRYLETSKYCPICDVQVHKTRPLLNIRSDKTLQDIVYKLVPGLFKNEMKRRRDFYAAHPSA
- binding result [4]: binds
